Earlier results in Sander's compilation of Henry's law constants (doi:10.1007/978-1-4612-3850-8_1).
Several values for one entry are separate records, joined by “and”; a condition that tells them apart may be missing. Equal values may be shown once.

Legend:
[1] = Henry solubility constant Hcp at 298.15 K (mol/(m3 Pa)); details: reference: Suntio et al. (1988); cited value
[2] = Henry solubility constant Hcp at 293 K (mol/(m3 Pa)); details: reference: Suntio et al. (1988); cited value

Clc1ccc(C(c2ccc(Cl)cc2)C(Cl)(Cl)Cl)cc1 [1,1,1-trichloro-2,2-bis-(4-chlorophenyl)-ethane]
Henry solubility constant Hcp [1]: 0.17

ClC(Cl)=C(c1ccc(Cl)cc1)c1ccc(Cl)cc1 [1,1-dichloro-2,2-bis-(4-chlorophenyl)-ethene]
Henry solubility constant Hcp [1]: 0.45

CC1=CC(=O)CC(C)(C)C1 [3,5,5-trimethyl-2-cyclohexen-1-one]
Henry solubility constant Hcp at 293 K [2]: 1.8

CNC(=O)O/N=C/C(C)(C)SC [aldicarb]
Henry solubility constant Hcp at 293 K [2]: 1.9

ClC1=C(Cl)[C@]2(Cl)C3C(Cl)C(Cl)CC3[C@@]1(Cl)C2(Cl)Cl (some centres undefined) [chlordane]
Henry solubility constant Hcp [1]: 0.2 and 0.11

ClC1=C(Cl)[C@]2(Cl)[C@@H]3[C@@H]4C[C@@H]([C@H]5O[C@@H]45)[C@@H]3[C@@]1(Cl)C2(Cl)Cl [dieldrin]
Henry solubility constant Hcp at 293 K [2]: 50

ClC1=C(Cl)[C@]2(Cl)[C@@H]3[C@H]4C[C@H]([C@@H]5O[C@H]45)[C@@H]3[C@@]1(Cl)C2(Cl)Cl [endrin]
Henry solubility constant Hcp [1]: 5600

ClC1(Cl)C2(Cl)C3(Cl)C4(Cl)C(Cl)(Cl)C5(Cl)C3(Cl)C1(Cl)C5(Cl)C24Cl (centres undefined) [mirex]
Henry solubility constant Hcp at 293 K [2]: 0.00099

Clc1ccc(C(c2ccccc2Cl)C(Cl)Cl)cc1 (centres undefined) [mitotane]
Henry solubility constant Hcp [1]: 560

ClC(Cl)=C(c1ccc(Cl)cc1)c1ccccc1Cl [o,p'-DDE]
Henry solubility constant Hcp at 293 K [2]: 0.14

C=CC=O [propenal]
Henry solubility constant Hcp at 293 K [2]: 0.18

ClC1C(Cl)C(Cl)C(Cl)C(Cl)C1Cl (stereo not drawn) [α-1,2,3,4,5,6-hexachlorocyclohexane]
Henry solubility constant Hcp [1]: 1.8

ClC1C(Cl)C(Cl)C(Cl)C(Cl)C1Cl (stereo not drawn) [β-1,2,3,4,5,6-hexachlorocyclohexane]
Henry solubility constant Hcp [1]: 56

ClC1C(Cl)C(Cl)C(Cl)C(Cl)C1Cl (centres undefined) [γ-1,2,3,4,5,6-hexachlorocyclohexane]
Henry solubility constant Hcp at 293 K [2]: 20
